# Source: the METLIN SMRT retention time set (Domingo-Almenara et al. 2019)
# Assay: gradient 5% acetonitrile 3 min, to 50% in 2 min, to 85% in 15 min, held 3 min, 100 µL/min
# Conditions: column: Zorbax Extend-C18 2.1 x 50 mm; eluents: water / acetonitrile, 0.1% formic acid
# How it was run: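 Data were gathered over 3 months by HPLC coupled to a quadrupole time-of-flight mass spectrometer, operated in positive and negative ionization mode. Mixtures of ~100 pure standards ran on a Zorbax Extend-C18 column (2.1 × 50 mm, 1.8 μm) at 100 μL/min, with water and acetonitrile each containing 0.1% formic acid and dead and dwell volumes of 40 μL and 900 μL. Retention time was read from adduct peaks picked by computer and checked manually.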
row,RP-LC retention time [s],SMILES
1,670,O=C(C1CCCN(c2nnc3ccc(C(F)(F)F)cn23)C1)N1CCCCC1 (stereo not given)
2,838,COc1ccc(S(=O)(=O)N2CCCC(C(=O)NCc3ccccn3)C2)cc1Cl (stereo not given)
3,597,Cn1c(N2CCCC(C(=O)N3CCN(Cc4ccccc4)CC3)C2)cc(=O)n(C)c1=O (stereo not given)
4,590,O=C(Nc1cccn2cnnc12)c1cnccn1
5,1250,COc1cccc(-n2c(=O)c(C(=O)Nc3ccc(F)c(Cl)c3)c(O)c3cccnc32)c1
6,778,Fc1ccc(C2CCNCC2COc2ccc3c(c2)OCO3)cc1 (stereo not given)
7,780,CCn1c(=O)c(C(=O)NCc2cccc(OC)c2)nc2cccnc21
8,589,Cc1ccc2cc(CCC(=O)NCCc3ccncc3)c(=O)[nH]c2c1
9,872,CC(C)c1ccc(NC(=O)CC2COc3ccccc3NC2=O)cc1 (stereo not given)
10,1000,CCCn1ccc2sc(C)c(C(=O)NCc3ccc(F)cc3Cl)c2c1=O
11,939,CCOc1ccc(NC(=O)Nc2nccn(-c3cccc(F)c3)c2=O)cc1
12,614,CC(C)CC(=O)Nc1ccc(N2CCN(CC(=O)N3CCCC3)CC2)cc1C(=O)O
13,1050,COC(=O)C1CCN(S(=O)(=O)c2ccc(Cl)c(-c3nnc(-c4ccc(OC)cc4)o3)c2)CC1
14,555,O=C(Nc1nccs1)C1CCN(C(=O)c2ccccn2)CC1
15,719,COC(=O)c1ccc(C2CC(=O)NC3=C2C(=O)C(C(=O)OC)C(C)C3)cc1 (stereo not given)
16,811,Cn1nccc1C(=O)N1CCC(c2nc(-c3ccc(F)cc3)no2)CC1
17,941,COc1ccc(C(=O)CSc2nnnn2-c2cccc(C)c2)cc1
18,1100,O=C(Cc1ccc(Br)cc1)Nc1nc(-c2ccccc2)cs1
19,693,Cc1cccc(C)c1NC(=O)Cn1cnc2nc(N3CCC(C(=O)NC4CC4)CC3)sc2c1=O
20,767,CCOc1ccc(C(=O)N2CCC3(CC2)NC(=O)c2ccc(F)cc2N3C)cc1
21,770,CCc1nc2ccccc2n1CC(O)COc1cc(C)c(Cl)c(C)c1 (stereo not given)
22,791,COC(=O)c1c(C)sc(-c2c(-c3ccc(Br)cc3)[nH]c3[nH]c(=O)[nH]c(=O)c23)c1O

row,RP-LC retention time [s],SMILES
1,588,CN(C)c1ncccc1C(=O)NC1CCCCC1
2,716,Cc1nc(CNS(=O)(=O)c2cc([N+](=O)[O-])ccc2C)cs1
3,722,Cc1ccc(CNC(=O)C2CCCN(c3cnc4nccnc4c3)C2)cc1C (stereo not given)
4,929,O=C(Cc1cn(Cc2ccccc2)c2ccccc12)NCc1cccs1
5,891,COc1cccc(CNC(=O)N2CCc3nc(-c4ccccc4)sc3C2)c1
6,578,CC(C(=O)NCCSc1nncn1C)n1nnc2ccccc2c1=O (stereo not given)
7,725,CCSc1ccccc1C(=O)NCC1CCN(S(=O)(=O)C2CC2)CC1
8,894,Cc1cc2c(c(=O)n(-c3ccc(F)cc3)c(=O)n2CC(=O)Nc2ccc(Cl)cc2F)n1C
9,721,COCCn1cc(CCNC(=O)Nc2cccc(C)c2C)c2cccnc21
10,925,CC(C)C(=O)N1CCc2c([nH]c3ccccc23)C12C(=O)Nc1ccc(Br)cc12 (stereo not given)
11,990,Cn1nc(-c2nnc(-c3ccccc3)o2)c2c1CCN(S(=O)(=O)c1ccccc1C(F)(F)F)C2
12,624,COc1cccc(-c2noc(Cn3ccnc3C)n2)c1
13,838,CCN(C(=O)Cn1ccn2nc(-c3ccccc3)c(CO)c2c1=O)c1ccccc1
14,722,CN(C(=O)Cn1cnc2nc3c(cc2c1=O)CCCC3)c1ccccc1F
15,962,Cc1ccc(-c2nnc(-c3cccnc3N3CCC4(CC3)OCCO4)o2)cc1
16,1100,COCCn1c(SCc2nc(-c3ccc(C)cc3)no2)nc2cc3c(cc2c1=O)OCO3
17,691,Cc1ccc(-c2ncccc2CNS(=O)(=O)c2cccc(C#N)c2)cc1
18,640,O=C1NCCCn2cc(S(=O)(=O)NCc3ccc4c(c3)OCO4)cc21
19,858,COc1cccc(-c2cc(=O)n3c4ccccc4n(CC(=O)NC(C)C)c3n2)c1
20,792,CN(C)C(=O)c1ccc2c(c1)N(CC(=O)NCc1ccc(Cl)cc1)C(=O)C1CCCCN21 (stereo not given)
21,769,COCC1CCN(C(=O)NCc2cccc3ccccc23)CC1
22,905,CCn1ccc2cc(S(=O)(=O)N3CCC(C(=O)NC(C)Cc4ccco4)CC3)ccc21 (stereo not given)

row,RP-LC retention time [s],SMILES
1,844,COc1ccc(NC(=O)C2CCCN2S(=O)(=O)c2ccc(F)cc2)cc1 (stereo not given)
2,1100,Cc1cccc(N(C(=O)Nc2ccccc2C)C2=NCCC2)c1
3,679,COc1ccc(C2(C(=O)N3C[C@H]4C[C@H](C3)[C@H]3CCCC(=O)N3C4)CC2)cc1
4,638,COc1ccc(OC)c(NC(=O)c2cc(S(=O)(=O)N3CCCC(C)C3)cn2C)c1 (stereo not given)
5,557,O=C(NCCN1CCN(C(=O)c2cc(=O)c3ccccc3o2)CC1)c1ccsc1
6,647,NC(=O)/C(=C\c1ccncc1)c1cccc2ccccc12
7,592,COc1ccc(C)cc1NC(=O)N1CCc2nc[nH]c2C1
8,788,CCn1ncc(NC(=O)c2cccc(F)c2)c(N2CCOCC2)c1=O
9,794,COc1ccc(OC)c(NC(=O)C2CC(=O)N(CCc3c[nH]c4ccc(F)cc34)C2)c1 (stereo not given)
10,718,CCN(CC)c1ccc(-c2noc(CN3CCc4ccccc4C3)n2)cn1
11,608,Cc1cccc(CN2CCN(CC(=O)N3CCN(Cc4ccccc4)CC3)C(=O)C2=O)c1
12,704,COc1ccc(NC(=O)C2CCN(c3nnc4ccccn34)CC2)cc1C(F)(F)F
13,619,CCN(CC)CCCNS(=O)(=O)c1cc(-c2cc(C)no2)cs1
14,1060,Cc1csc(-c2cc(S(=O)(=O)Nc3ccc(Cl)cc3)c(C)s2)n1
15,1050,Cc1cc(C)cc(NC(=O)c2csc(-c3cn(C)c4ncccc34)n2)c1
16,723,CCC1CN(CC(=O)N2CCN(c3ccccn3)CC2)c2ccccc2S1 (stereo not given)
17,986,CCc1nn2c(CNS(=O)(=O)c3cc(C)ccc3C)c(-c3ccccc3)nc2s1
18,758,CCC(C)NC(=O)N1CCN(Cc2nc3cc(C(C)(C)C)ccc3o2)CC1 (stereo not given)
19,611,Cn1cc(-c2cc3n(n2)CCCN3C(=O)CCC(=O)NCCCN2CCOCC2)c2ccccc21
20,1270,Cc1cc(Oc2ncnc3c2cnn3-c2ccc(Cl)cc2)ccc1[N+](=O)[O-]
21,1220,Cc1ccc(Cl)cc1NS(=O)(=O)c1c(C)sc(C)c1-c1cc(C(F)(F)F)on1
22,687,CN1CCCCc2cc(C(=O)NCCN(C)C3CCCCC3)sc21

row,RP-LC retention time [s],SMILES
1,1020,Cc1noc(C)c1S(=O)(=O)N1CCC(OCCOCc2ccccc2)CC1
2,787,CCSc1ccc(-c2cccc(NC(=O)CC)c2)nn1
3,564,O=C(Nc1ccc(CN2CCN(c3ccccn3)CC2)cc1)c1ccccc1C(F)(F)F
4,1040,Cc1cccc(NC(=O)c2csc(-c3cn(C)c4ncccc34)n2)c1
5,846,CSc1cccc(NC(=O)Cn2c(=O)c(CCC(=O)NCC(C)C)nc3ccccc32)c1
6,786,CCc1cnc2c(c1SCC(=O)N(CC)CC)c(=O)n(C)c(=O)n2C
7,855,CCC(=O)N(CC(=O)N1CCc2sccc2C1COc1ccccc1OC)C(C)C (stereo not given)
8,849,Cc1ccc(NC(=O)c2c(C)oc3nc(C)nc(N4CCOCC4)c23)c(C)c1
9,737,Cc1ccc(-c2ccc(N3CCCC(C(=O)NCC(C)C)C3)nn2)cc1C (stereo not given)
10,960,COc1ccc(OC)c(S(=O)(=O)N2CCC(c3cc(-c4cccc(C)c4)n[nH]3)CC2)c1
11,597,c1cncc(-c2nc(-c3ccc(-n4ccnc4)nc3)no2)c1
12,643,O=C(NCCn1nc(-c2ccco2)ccc1=O)c1n[nH]c2ccccc12
13,740,CC(=O)N1CCc2cc(N3CC(C(=O)NCc4ccc(F)cc4)CC3=O)ccc21 (stereo not given)
14,1370,COC(=O)c1sc(-c2ccccc2)cc1NC(=O)c1ccc([N+](=O)[O-])s1
15,842,CSc1cccc2sc(Nc3nc(C)c(C(C)=O)s3)nc12
16,725,CCOC(=O)C(C)Oc1cccc2c(=O)n(CC(=O)NCc3ccco3)ccc12 (stereo not given)
17,930,CCC1Oc2ccc(S(=O)(=O)N3CCC(C(=O)Nc4ccc(C)c(C)c4)CC3)cc2NC1=O (stereo not given)
18,1160,CC1CCC(NC(=O)c2nnn(Cc3ccc(F)cc3)c2-n2cccc2)CC1 (stereo not given)
19,659,CCn1c(=O)c(NCc2ccccc2Cl)nc2ccncc21
20,897,COC(=O)c1cn(CC(=O)NCc2cc3c(cc2OC)OCCCO3)c2ccccc12
21,682,COc1ccc(CC(=O)Nc2nnc(SCC(=O)NC3=NCCS3)s2)cc1
22,683,CC(NC(=O)c1nnc(-c2ccc(S(=O)(=O)N(C)C)cc2)o1)c1ccccn1 (stereo not given)

row,SMILES,RP-LC retention time [s]
1,CN1CC[C@@]23CCCC[C@@H]2[C@@H]1Cc1ccc(O)cc13,644
2,CCN1CCN(C(=O)Cc2csc(-n3nc(C)c(Cl)c3C)n2)CC1,691
